Source: patent US9617310B2 (priority 2013, dated 2017)

Experiments:
NS3 genotype 1b protease = biological target: T1, NS3 genotype 1b protease (Hepatitis C virus genotype 1b, UniProt Q9WMX2, E1202G); experiment: Ki determination, NS3 protease genotype 1b (fluorogenic depsipeptide substrate); assay type: biochemical; conditions: NS3 protease domain genotype 1b, NS4A peptide
T1 construct: Purified NS3 protease domain (amino acids 1-181) of the genotype 1b and 3a virus were generated as above; K3 hexahistidine tag (N); rTEV protease cleavage site (N); made in house; host or cells: E. coli BL21AI
T1 sequence (Q9WMX2 1027-1207 E1202G, other chains not shown): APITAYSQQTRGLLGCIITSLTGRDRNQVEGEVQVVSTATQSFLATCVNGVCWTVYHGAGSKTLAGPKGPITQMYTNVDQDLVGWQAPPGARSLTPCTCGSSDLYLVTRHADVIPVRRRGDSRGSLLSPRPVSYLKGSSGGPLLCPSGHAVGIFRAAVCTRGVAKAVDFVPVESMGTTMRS
From the text: Ki Determination for Genotypes 1b and 3a NS3 Protease.
Purified NS3 protease domain (amino acids 1-181) of the genotype 1b and 3a virus were generated as above. The internally quenched fluorogenic depsipeptide substrate Ac-DED(Edans)-EEAbuψ[COO]ASK(Dabcyl)-NH2 and a synthetic peptide containing the hydrophobic core residues of the NS4A protein cofactor ([…]; NS4A peptide) were obtained from Anaspec, Inc. (San Jose, Calif.). Other chemicals and biochemicals were of reagent grade or better and were purchased from standard suppliers.
Reactions were run at room temperature in buffer consisting of 50 mM HEPES, 40% glycerol, 0.05% Triton X-100, 10 mM DTT, and 10% DMSO. The final assay solutions contained 50 pM NS3 genotype 1b protease or 200 pM genotype 3a protease, 20 μM NS4A peptide, and 4 μM substrate (genotype 1b) or 2 μM substrate (genotype 3a). Inhibitor concentrations varied from 100 nM to 5 pM in 3-fold dilutions, and no-inhibitor controls were included.
Compound dilutions were made in DMSO at 20× final concentration. Reaction mixtures were prepared in 96-well assay plates. A solution of enzyme and NS4A peptide in assay buffer (25 μL volume with both reagents at 4× final concentration) was mixed with 45 μL assay buffer and 5 μL of either inhibitor or DMSO, and pre-incubated at room temperature for 1 hour. The reaction was started by addition of 25 μL substrate solution at 4× final concentration. Plates were mixed vigorously for 5-10 seconds and reactions were allowed to proceed for 90 minutes. Fluorescence was measured every 30 s between 90 and 120 minutes reaction time using a Tecan InfiniTe M1000 or PerkinElmer Envision multimode plate reader with an excitation wavelength of 340 nm and an emission wavelength of 490 nm.
Rates were calculated from the progress curves at steady state, in the time frame of 90-120 minutes after addition of substrate. To determine the Ki, rates were plotted as a function of inhibitor concentration, and the data were fit with equation 1 (Morrison, J. F., Biochimica et Biophysica Acta 1969, 185, 269-286) to calculate Ki^app using GraphPad Prism 5. Active fraction of enzyme was determined by active site titration with known potent inhibitors. Ki was calculated from Ki^app/(1+[[S]/Km]).

[1] = test system: genotype 1b stable HCV replicon (Con1) in Huh-7-derived cells; experiment: Stable subgenomic HCV replicon, genotype 1b, Renilla luciferase; assay type: cell-based; conditions: Hepatitis C virus, stable replicon genotype 1b, 72 h, read-out: EC50 1B RLUC
Summary of the method: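 Replicons carry hRLuc-neo, EMCV IRES and NS3-NS5B with adaptive mutations: 1a H77 P1496L/S2204I, 1b Con1 E1202G/T1280I/K1846T, 4a ED43 Q1691R/S2204I. EC50 came from non-linear regression versus DMSO and a triple-inhibitor full-inhibition control.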

[2] = test system: genotype 2a stable HCV replicon (JFH-1) in Huh-7-derived cells; experiment: Stable subgenomic HCV replicon, genotype 2a, Renilla luciferase; assay type: cell-based; conditions: Hepatitis C virus, stable replicon genotype 2a, 72 h, read-out: EC50 2A RLUC
Procedure: Antiviral potency (EC50) was determined in both stable subgenomic HCV replicon cell lines and transient-transfected HCV replicon cells. The term half maximal effective concentration (EC50) refers to the concentration of a drug which induces a response halfway between the baseline and maximum after the exposure time specified below.
Stable subgenomic HCV replicons for genotype 1a, 1b, 2a, 3a, and 4a were established in Huh-7-derived cells as described by Lohmann et al (Lohmann V, Korner F, Koch J, et al Replication of subgenomic hepatitis C virus RNAs in a hepatoma cell line. Science 1999; 285:119-3). Each stable cell line contains a bicistronic HCV replicon that encodes a humanized Renilla luciferase (hRLuc) reporter gene fused to a selectable neomycin-resistance gene, followed by an EMCV IRES and the NS3-NS5B coding region of HCV. […] Luciferase activity was measured as a marker for intracellular HCV replication levels.
The genotype 1a stable replicon was derived from the H77 HCV strain and contained adaptive mutations P1496L and S2204I. The genotype 1b stable replicon was derived from the Con1 HCV strain and contained adaptive mutations E1202G, T1280I, and K1846T. […] The genotype 3a stable replicon was derived from the S52 HCV strain and contained adaptive mutations P1121 L, A1198T and S2210I (equivalent to S2204I in genotype 1). The genotype 4a stable replicon was derived from the ED43 HCV strain and contained adaptive mutations Q1691R and S2204I. All replicon cell lines were propagated in Huh-7-derived cells and maintained in Dulbecco's modified Eagle's Medium (DMEM) supplemented with 10% fetal bovine serum (FBS) and 0.5 mg/ml G418.
To perform EC50 assays, cells from each HCV replicon were dispensed into 384-well plates. Compounds were dissolved in DMSO at a concentration of 10 mM and diluted in DMSO using an automated pipetting instrument. Three-fold serially diluted compounds were directly added to the cells using an automated instrument. DMSO was used as a negative (solvent; no inhibition) control, and a combination of three HCV inhibitors including a protease inhibitor; an NS5A inhibitor and a nucleoside inhibitor was used at concentrations >100×EC50 as a positive control (100% inhibition). Seventy-two hours later, cells were lysed and Renilla luciferase activity were quantified as recommended by the manufacturer (Promega-Madison, Wis.). Non-linear regression was performed to calculate […], values.

[3] = test system: genotype 3a transient HCV replicon (S52) in Huh-7-derived cells; experiment: Transient-transfected HCV replicon, genotype 3a wild type; assay type: cell-based; conditions: Hepatitis C virus; transient-transfected replicon genotype 3a wild type, 72 h; read-out: EC50 3A WT
[4] = test system: NS3/4a protease inhibitor resistant variant R155K in genotype 1a transient HCV replicon; experiment: Transient-transfected HCV replicon, genotype 1a R155K; assay type: cell-based; conditions: Hepatitis C virus, 72 h, read-out: EC50 1A R155K
[5] = test system: NS3/4a protease inhibitor resistant variant D168A in genotype 1b transient HCV replicon; experiment: Transient-transfected HCV replicon, genotype 1b D168A; assay type: cell-based; conditions: Hepatitis C virus, 72 h, read-out: EC50 1B D168A

| SMILES | Ki (NS3 genotype 1b protease) | EC50 [1] | EC50 [2] | EC50 [3] | EC50 [4] | EC50 [5] |
| --- | --- | --- | --- | --- | --- | --- |
| COc1ccc2nc3c(nc2c1)O[C@@H]1C[C@@H](C(=O)N[C@]2(C(=O)NS(=O)(=O)C4CC4)C[C@H]2C(F)F)N(C1)C(=O)[C@H](C(C)(C)C)NC(=O)O[C@@H]1C[C@@H]2C[C@@H]2[C@H]1CCCCC3(F)F (racemic) [Example 9, (1aS,2aR,6S,9S,11R,23aR,23bS)-6-tert-butyl-N-[(1R,2R)-1-[(cyclopropylsulfonyl)carbamoyl]-2-(difluoromethyl)cyclopropyl]-19,19-difluoro-15-methoxy-4,7-dioxo-1a,2,2a,4,5,6,7,10,11,19,20,21,22,23,23a,23b-hexadecahydro-1H,9H-8,11-methanocyclopropa[4′,5′]cyclopenta[1′,2′:18,19][1,10,3,6]dioxadiazacyclononadecino[11,12-b]quinoxaline-9-carboxamide] | 0.02 nM | 1.5 nM | 2.3 nM | 2.5 nM | 1.1 nM | 1.1 nM |
| COc1ccc2cc3c(nc2c1)O[C@@H]1C[C@@H](C(=O)N[C@]2(C(=O)NS(=O)(=O)C4CC4)C[C@H]2C(F)F)N(C1)C(=O)[C@H](C(C)(C)C)NC(=O)O[C@@H]1C[C@@H]2C[C@@H]2[C@H]1CCCCC3 [Example 21, (1aS,2aR,6S,9S,11R,23aR,23bS)-6-tert-butyl-N-[(1R,2R)-1-[(cyclopropylsulfonyl)carbamoyl]-2-(difluoromethyl)cyclopropyl]-15-methoxy-4,7-dioxo-1a,2,2a,4,5,6,7,10,11,19,20,21,22,23,23a,23b-hexadecahydro-1H,9H-8,11-methanocyclopropa[4′,5′]cyclopenta[1′,2′:18,19][1,10,3,6]dioxadiazacyclononadecino[11,12-b]quinoline-9-carboxamide] | 0.02 nM | 0.95 nM | 3.5 nM | 36 nM | 1.4 nM | 22 nM |
| CC(C)(C)[C@@H]1NC(=O)O[C@@H]2C[C@@H]3C[C@@H]3[C@H]2CCCCCc2nc3ccc(Cl)cc3nc2O[C@@H]2C[C@@H](C(=O)N[C@]3(C(=O)NS(=O)(=O)C4CC4)C[C@H]3C(F)F)N(C2)C1=O [Example 19, (1aS,2aR,6S,9S,11R,23aR,23bS)-6-tert-butyl-15-chloro-N-[(1R,2R)-1-[(cyclopropylsulfonyl)carbamoyl]-2-(difluoromethyl)cyclopropyl]-4,7-dioxo-1a,2,2a,4,5,6,7,10,11,19,20,21,22,23,23a, 23b-hexadecahydro-1H,9H-8,11-methanocyclopropa[4′,5′]cyclopenta[1′,2′:18,19][1,10,3,6]dioxadiazacyclononadecino[11,12-b]quinoxaline-9-carboxamide] | 0.02 nM | 1.3 nM | 3.1 nM | 17 nM | 1.9 nM | 16 nM |
| CC(C)(C)[C@@H]1NC(=O)O[C@@H]2C[C@@H]3C[C@@H]3[C@H]2CC/C=C/C(F)(F)c2nc3ccc(C#N)cc3nc2O[C@@H]2C[C@@H](C(=O)N[C@]3(C(=O)NS(=O)(=O)C4(C)CC4)C[C@H]3C(F)F)N(C2)C1=O [Example 13, (1aS,2aR,6S,9S,11R,20E,23aR,23bS)-6-tert-butyl-15-cyano-N-[(1R,2R)-2-(difluoromethyl)-1-{[(1-methylcyclopropyl)sulfonyl]carbamoyl}cyclopropyl]-19,19-difluoro-4,7-dioxo-1a,2,2a,4,5,6,7,10,11,19,22,23,23a,23b-tetradecahydro-1H,9H-8,11-methanocyclopropa[4′,5′]cyclopenta[1′,2′18,19][1,10,3,6]dioxadiazacyclononadecino[11,12-b]quinoxaline-9-carboxamide] | 0.02 nM | 3 nM | 1.4 nM | 2.8 nM | 2 nM | 1.1 nM |
| CC(C)(C)[C@@H]1NC(=O)O[C@@H]2C[C@@H]3C[C@@H]3[C@H]2CCCCC(F)(F)c2nc3ccc(C#N)cc3nc2O[C@@H]2C[C@@H](C(=O)N[C@]3(C(=O)NS(=O)(=O)C4(C)CC4)C[C@H]3C(F)F)N(C2)C1=O [Example 14, (1aS,2aR,6S,9S,11R,23aR,23bS)-6-tert-butyl-15-cyano-N-[(1R,2R)-2-(difluoromethyl)-1-{[(1-methylcyclopropyl)sulfonyl]carbamoyl}cyclopropyl]-19,19-difluoro-4,7-dioxo-1a,2,2a,4,5,6,7,10,11,19,20,21,22,23,23a,23b-hexadecahydro-1H,9H-8,11-methanocyclopropa[4′,5′]cyclopenta [1′,2′:18,19][1,10,3,6]dioxadiazacyclononadecino[11,12-b]quinoxaline-9-carboxamide] | 0.01 nM | 1.1 nM | 1.4 nM | 1.4 nM | 0.69 nM | 0.65 nM |
| COc1ccc2nc3c(nc2c1)O[C@@H]1C[C@@H](C(=O)N[C@]2(C(=O)NS(=O)(=O)C4(C)CC4)C[C@H]2C(F)F)N(C1)C(=O)[C@H](C(C)(C)C)NC(=O)O[C@@H]1[C@H]2CC[C@H](C2)[C@H]1CCCCC3 [Example 5, (1R,4S,4aR,8S,11S,13R,25aR)-8-tert-butyl-N-[(1R,2R)-2-(difluoromethyl)-1-{[(1-methylcyclopropyl)sulfonyl]carbamoyl}cyclopropyl]-17-methoxy-6,9-dioxo-2,3,4,4a,6,7,8,9,12,13,21,22,23,24,25,25a-hexadecahydro-1H,11H-1, 4:10,13-dimethanoquinoxalino[2,3-k][1,10,3,6]benzodioxadiazacyclononadecine-11-carboxamide] | 0.02 nM | 3.5 nM | 14 nM | 64 nM | 35 nM | 161 nM |
